Experimental data taken from patent US20150073021A1 (priority 2013, published 2015).

How the values were obtained:
bovine serum albumin = bovine serum albumin (Bos taurus, UniProt P02769); details: cited from earlier work
[1] = tested on: rats expressing pathologically excessive levels of MMPs; details: rat, in vivo; cited from earlier work
humans = details: in vivo; cited from earlier work
cell and tissue culture = details: cited from earlier work
Bacillus anthracis = details: in vivo

Sequence of bovine serum albumin (P02769 25-607): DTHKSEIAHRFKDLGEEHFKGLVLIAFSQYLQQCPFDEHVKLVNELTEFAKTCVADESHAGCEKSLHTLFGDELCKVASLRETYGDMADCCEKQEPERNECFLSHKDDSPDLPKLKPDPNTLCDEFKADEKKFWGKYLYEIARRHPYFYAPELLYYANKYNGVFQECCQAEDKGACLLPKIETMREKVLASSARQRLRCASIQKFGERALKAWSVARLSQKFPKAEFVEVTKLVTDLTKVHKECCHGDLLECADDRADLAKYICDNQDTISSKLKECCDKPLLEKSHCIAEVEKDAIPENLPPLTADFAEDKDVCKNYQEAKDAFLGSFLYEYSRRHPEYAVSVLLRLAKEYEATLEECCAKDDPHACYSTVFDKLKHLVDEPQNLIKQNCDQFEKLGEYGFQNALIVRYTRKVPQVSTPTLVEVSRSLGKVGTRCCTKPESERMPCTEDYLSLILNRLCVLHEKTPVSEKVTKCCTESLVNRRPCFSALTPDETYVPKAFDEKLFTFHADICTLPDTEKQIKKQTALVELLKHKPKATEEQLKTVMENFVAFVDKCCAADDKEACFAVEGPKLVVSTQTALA

Row | Structure (SMILES) | binding to bovine serum albumin (bovine serum albumin) | toxicity after oral gavage [1] | toxicity in humans (humans) | toxicity compared to the parent compound curcumin (cell and tissue culture) | treatment of subject infected with Bacillus anthracis (Bacillus anthracis)
1 | COc1cc(/C=C/C(=O)CC(=O)/C=C/c2ccc(O)c(OC)c2)ccc1O [curcumin, reference compound] | bind fairly strongly | no evidence of toxicity | virtually no toxicity | – | –
2 | O=C(/C=C/c1ccc(O)cc1)C(C(=O)/C=C/c1ccc(O)cc1)C(=O)Nc1ccccc1 [CMC2.24] | bind fairly strongly | no evidence of toxicity | – | even less toxicity | effective to treat the subject
